The source made the active and inactive calls.
Tests used:
[1] = molecular target: Photoreceptor-specific nuclear receptor (Homo sapiens, UniProt Q9Y5X4); type: functional, cell-based;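 note: CHO-S cells with Gal4-NCOR and VP16-NR2E3 two-hybrid luciferase reporter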
INS1 = test: INS-1E survival protection against cytokine death – cell-based, luminescence, retest, dose response (AID 449756); type: functional; conditions: Rattus norvegicus;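 note: cell death triggered by IL-1 beta plus TNF-alpha plus IFN-gamma mixture; protective hits raise ATP signal compared with cytokine alone wells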
Interleukin-8 = molecular target: T1, Interleukin-8 (Homo sapiens, UniProt P10145); test: Dose Response confirmation of uHTS small molecule hits for cystic fibrosis induced NFkb Inhibitors in a PAF-induced IL8 counterscreen.; type: functional; conditions: read-out: IC50_Mean
T1 sequence (P10145 whole entry): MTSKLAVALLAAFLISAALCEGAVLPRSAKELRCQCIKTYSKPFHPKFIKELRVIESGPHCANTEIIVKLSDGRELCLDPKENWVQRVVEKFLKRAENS

[2] = molecular target: T2, Small ubiquitin-related modifier 1 (Homo sapiens, UniProt P63165); test: SUMO1 protein interaction blockers, potency – biochemical, fluorescence polarization, uHTS hits, dose response (AID 624382); type: functional; conditions: read-out: IC50_Mean
[3] = molecular target: T3, Carboxy-terminal domain RNA polymerase II polypeptide A small phosphatase 1 (Homo sapiens, UniProt Q9GZU7); test: CTDSP1 inhibitors, concentration-response, biochemical, absorbance readout, ultra-high-throughput screen actives (AID 540297); type: functional
T3 sequence (Q9GZU7 whole entry): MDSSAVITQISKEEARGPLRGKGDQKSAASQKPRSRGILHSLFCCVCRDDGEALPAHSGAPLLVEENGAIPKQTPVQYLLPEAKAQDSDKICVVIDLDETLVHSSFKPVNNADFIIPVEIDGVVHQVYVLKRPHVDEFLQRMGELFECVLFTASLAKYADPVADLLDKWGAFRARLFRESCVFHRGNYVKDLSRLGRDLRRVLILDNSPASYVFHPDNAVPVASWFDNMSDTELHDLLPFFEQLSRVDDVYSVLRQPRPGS

[4] = molecular target: DNA (cytosine-5)-methyltransferase 1 (Homo sapiens, UniProt P26358); test: inhibition of DNA methylation by DNMT1 – biochemical, fluorescent molecular beacon, confirmation (AID 602386); type: functional
[5] = molecular target: T2, Small ubiquitin-related modifier 1; test: SUMO1 protein-protein binding blockers, potency – biochemical, FRET, dose response (AID 624383); type: functional; conditions: read-out: IC50_Mean
[6] = molecular target: T4, Tyrosine-protein phosphatase non-receptor type 22 (Homo sapiens, UniProt Q9Y2R2); test: PTPN22 enzyme inhibitors – biochemical, fluorescence, LYP catalytic domain, selectivity assay for LMPTP inhibitor project, dose response (AID 652006); type: functional; conditions: read-out: IC50_Mean
T4 sequence (Q9Y2R2 whole entry): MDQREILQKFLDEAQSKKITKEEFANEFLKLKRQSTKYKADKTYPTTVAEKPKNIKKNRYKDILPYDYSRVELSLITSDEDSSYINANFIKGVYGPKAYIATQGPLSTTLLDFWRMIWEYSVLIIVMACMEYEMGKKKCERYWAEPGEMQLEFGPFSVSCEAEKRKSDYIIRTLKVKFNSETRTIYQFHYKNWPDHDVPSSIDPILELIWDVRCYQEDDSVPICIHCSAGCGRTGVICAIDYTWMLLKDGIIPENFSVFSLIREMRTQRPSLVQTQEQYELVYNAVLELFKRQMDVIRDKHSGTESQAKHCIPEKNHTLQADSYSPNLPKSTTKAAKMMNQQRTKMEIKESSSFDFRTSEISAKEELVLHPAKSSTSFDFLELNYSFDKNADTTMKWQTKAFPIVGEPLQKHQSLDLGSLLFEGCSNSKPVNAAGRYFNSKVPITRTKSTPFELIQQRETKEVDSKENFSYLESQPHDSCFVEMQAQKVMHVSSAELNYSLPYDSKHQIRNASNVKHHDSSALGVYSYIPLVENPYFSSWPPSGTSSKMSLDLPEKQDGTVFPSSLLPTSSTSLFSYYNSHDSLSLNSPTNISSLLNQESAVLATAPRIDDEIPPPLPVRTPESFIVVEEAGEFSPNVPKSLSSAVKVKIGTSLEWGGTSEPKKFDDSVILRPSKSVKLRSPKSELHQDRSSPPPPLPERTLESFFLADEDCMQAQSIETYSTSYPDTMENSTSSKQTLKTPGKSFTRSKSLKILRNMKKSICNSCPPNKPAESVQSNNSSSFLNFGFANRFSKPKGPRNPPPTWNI

[7] = molecular target: T5, Voltage-gated N-type calcium channel alpha-1B subunit/Amyloid beta A4 precursor protein-binding family A member 1 (Homo sapiens, UniProt Q00975+Q02410); type: protein assay
[8] = molecular target: T6, Low molecular weight phosphotyrosine protein phosphatase (Homo sapiens, UniProt P24666); type: functional; conditions: read-out: IC50_Mean;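 note: Dose-response confirmation assay measuring inhibition of LMPTP enzyme activity by fluorescence intensity read-out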
T6 sequence (P24666 whole entry): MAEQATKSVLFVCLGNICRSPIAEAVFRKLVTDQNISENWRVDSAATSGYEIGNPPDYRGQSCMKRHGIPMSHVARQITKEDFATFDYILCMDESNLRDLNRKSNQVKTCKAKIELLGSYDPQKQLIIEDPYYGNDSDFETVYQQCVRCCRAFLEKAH

[9] = molecular target: T5, Voltage-gated N-type calcium channel alpha-1B subunit/Amyloid beta A4 precursor protein-binding family A member 1; type: protein assay; remark: listed apart in the source
[10] = molecular target: T7, Neuropeptides B/W receptor type 1 (Homo sapiens, UniProt P48145); test: human NPBW1 receptor blockade, IC50 – cell-based, fluorescence, dose response, set 5, late-stage follow-up (AID 588566); type: functional
T7 sequence (P48145 whole entry): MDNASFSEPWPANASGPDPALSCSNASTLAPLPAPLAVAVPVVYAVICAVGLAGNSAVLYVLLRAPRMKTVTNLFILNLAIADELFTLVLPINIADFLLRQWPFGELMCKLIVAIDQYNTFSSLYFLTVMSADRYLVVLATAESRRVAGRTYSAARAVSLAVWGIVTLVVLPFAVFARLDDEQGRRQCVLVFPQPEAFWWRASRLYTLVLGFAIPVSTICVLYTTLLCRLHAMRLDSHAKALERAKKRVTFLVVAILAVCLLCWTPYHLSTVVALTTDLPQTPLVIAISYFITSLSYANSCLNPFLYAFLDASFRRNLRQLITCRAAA

[11] = molecular target: Melanin-concentrating hormone receptor 1 (Homo sapiens, UniProt Q99705); test: Late-stage fluorescence-based counterscreen for antagonists of the G-protein coupled receptor 7 (GPR7): cell-based dose response assay to identify antagonists of the melanin-concentrating hormone receptor 1 (MCHR1) Set 5.; type: functional
[12] = THP-1 cell cytotoxicity, cytotoxicity control, set 4 (AID 504911); type: functional; conditions: Mycobacterium tuberculosis
[13] = Vero cell cytotoxicity, cytotoxicity control for M. tuberculosis inhibitor project, purified and synthesized samples, set 3 (AID 504684); type: functional
Fatty acid synthase = Fatty acid synthase (Homo sapiens, UniProt P49327); test: inhibition of human FAS-TE enzyme activity – biochemical, kinetic fluorescence intensity, dose response (AID 624326); type: functional;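 note: rate of fluorescence rise from hydrolysis of a fluorogenic O-methyl fluorescein ester substrate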
[14] = Fluorescence-based cell-based high throughput dose response assay for inhibitors of the interaction of nucleotide-binding oligomerization domain containing 2 (NOD2) and the receptor-interacting serine-threonine kinase 2 (RIPK2).; type: functional; conditions: Homo sapiens
Beta Lactamase = Beta Lactamase (Pseudomonas aeruginosa, UniProt Q932Y6); test: BLA reporter interference, concentration series – BLA reporter cells, FRET fluorescence, artefact control for NOD2-RIPK2 interaction inhibitor project, dose response (AID 651552); type: functional, cell-based
[15] = molecular target: Hepatocyte nuclear factor 4-alpha (Homo sapiens, UniProt P41235); type: functional, cell-based;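 note: biochemical luminescence-based dose-response counterscreen measuring inhibition of HNF4 dimerization, run alongside a screen for blockers of ABHD5–perilipin-5 interaction; split luciferase complementation of HNF4 fusion proteins in cell lysate measuring dimerization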
Hepatocyte nuclear factor 4-alpha, sequence (P41235 whole entry, the tested form may be a part): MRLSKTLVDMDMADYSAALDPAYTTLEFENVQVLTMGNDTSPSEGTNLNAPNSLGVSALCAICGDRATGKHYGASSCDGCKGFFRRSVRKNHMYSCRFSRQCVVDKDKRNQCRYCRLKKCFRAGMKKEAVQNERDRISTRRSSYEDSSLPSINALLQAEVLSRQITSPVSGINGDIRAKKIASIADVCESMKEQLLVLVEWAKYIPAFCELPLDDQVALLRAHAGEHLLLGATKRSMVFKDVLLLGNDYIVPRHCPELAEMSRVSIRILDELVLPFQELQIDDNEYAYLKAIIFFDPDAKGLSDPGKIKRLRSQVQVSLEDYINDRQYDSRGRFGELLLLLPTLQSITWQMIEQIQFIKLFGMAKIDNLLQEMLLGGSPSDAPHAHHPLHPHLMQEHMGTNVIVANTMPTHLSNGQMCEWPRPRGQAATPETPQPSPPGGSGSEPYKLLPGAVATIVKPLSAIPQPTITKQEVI

Melanin-concentrating hormone receptor 1, sequence (Q99705 whole entry): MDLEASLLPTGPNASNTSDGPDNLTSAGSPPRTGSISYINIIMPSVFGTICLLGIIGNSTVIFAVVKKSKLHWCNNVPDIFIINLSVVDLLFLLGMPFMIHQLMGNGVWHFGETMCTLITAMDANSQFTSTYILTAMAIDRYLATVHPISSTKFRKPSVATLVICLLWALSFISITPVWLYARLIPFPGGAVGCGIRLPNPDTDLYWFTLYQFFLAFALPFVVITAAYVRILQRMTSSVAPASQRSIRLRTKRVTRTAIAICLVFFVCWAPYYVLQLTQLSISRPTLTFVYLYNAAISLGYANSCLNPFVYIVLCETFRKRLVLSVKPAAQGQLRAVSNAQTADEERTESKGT
T5 sequence (Q00975 whole entry): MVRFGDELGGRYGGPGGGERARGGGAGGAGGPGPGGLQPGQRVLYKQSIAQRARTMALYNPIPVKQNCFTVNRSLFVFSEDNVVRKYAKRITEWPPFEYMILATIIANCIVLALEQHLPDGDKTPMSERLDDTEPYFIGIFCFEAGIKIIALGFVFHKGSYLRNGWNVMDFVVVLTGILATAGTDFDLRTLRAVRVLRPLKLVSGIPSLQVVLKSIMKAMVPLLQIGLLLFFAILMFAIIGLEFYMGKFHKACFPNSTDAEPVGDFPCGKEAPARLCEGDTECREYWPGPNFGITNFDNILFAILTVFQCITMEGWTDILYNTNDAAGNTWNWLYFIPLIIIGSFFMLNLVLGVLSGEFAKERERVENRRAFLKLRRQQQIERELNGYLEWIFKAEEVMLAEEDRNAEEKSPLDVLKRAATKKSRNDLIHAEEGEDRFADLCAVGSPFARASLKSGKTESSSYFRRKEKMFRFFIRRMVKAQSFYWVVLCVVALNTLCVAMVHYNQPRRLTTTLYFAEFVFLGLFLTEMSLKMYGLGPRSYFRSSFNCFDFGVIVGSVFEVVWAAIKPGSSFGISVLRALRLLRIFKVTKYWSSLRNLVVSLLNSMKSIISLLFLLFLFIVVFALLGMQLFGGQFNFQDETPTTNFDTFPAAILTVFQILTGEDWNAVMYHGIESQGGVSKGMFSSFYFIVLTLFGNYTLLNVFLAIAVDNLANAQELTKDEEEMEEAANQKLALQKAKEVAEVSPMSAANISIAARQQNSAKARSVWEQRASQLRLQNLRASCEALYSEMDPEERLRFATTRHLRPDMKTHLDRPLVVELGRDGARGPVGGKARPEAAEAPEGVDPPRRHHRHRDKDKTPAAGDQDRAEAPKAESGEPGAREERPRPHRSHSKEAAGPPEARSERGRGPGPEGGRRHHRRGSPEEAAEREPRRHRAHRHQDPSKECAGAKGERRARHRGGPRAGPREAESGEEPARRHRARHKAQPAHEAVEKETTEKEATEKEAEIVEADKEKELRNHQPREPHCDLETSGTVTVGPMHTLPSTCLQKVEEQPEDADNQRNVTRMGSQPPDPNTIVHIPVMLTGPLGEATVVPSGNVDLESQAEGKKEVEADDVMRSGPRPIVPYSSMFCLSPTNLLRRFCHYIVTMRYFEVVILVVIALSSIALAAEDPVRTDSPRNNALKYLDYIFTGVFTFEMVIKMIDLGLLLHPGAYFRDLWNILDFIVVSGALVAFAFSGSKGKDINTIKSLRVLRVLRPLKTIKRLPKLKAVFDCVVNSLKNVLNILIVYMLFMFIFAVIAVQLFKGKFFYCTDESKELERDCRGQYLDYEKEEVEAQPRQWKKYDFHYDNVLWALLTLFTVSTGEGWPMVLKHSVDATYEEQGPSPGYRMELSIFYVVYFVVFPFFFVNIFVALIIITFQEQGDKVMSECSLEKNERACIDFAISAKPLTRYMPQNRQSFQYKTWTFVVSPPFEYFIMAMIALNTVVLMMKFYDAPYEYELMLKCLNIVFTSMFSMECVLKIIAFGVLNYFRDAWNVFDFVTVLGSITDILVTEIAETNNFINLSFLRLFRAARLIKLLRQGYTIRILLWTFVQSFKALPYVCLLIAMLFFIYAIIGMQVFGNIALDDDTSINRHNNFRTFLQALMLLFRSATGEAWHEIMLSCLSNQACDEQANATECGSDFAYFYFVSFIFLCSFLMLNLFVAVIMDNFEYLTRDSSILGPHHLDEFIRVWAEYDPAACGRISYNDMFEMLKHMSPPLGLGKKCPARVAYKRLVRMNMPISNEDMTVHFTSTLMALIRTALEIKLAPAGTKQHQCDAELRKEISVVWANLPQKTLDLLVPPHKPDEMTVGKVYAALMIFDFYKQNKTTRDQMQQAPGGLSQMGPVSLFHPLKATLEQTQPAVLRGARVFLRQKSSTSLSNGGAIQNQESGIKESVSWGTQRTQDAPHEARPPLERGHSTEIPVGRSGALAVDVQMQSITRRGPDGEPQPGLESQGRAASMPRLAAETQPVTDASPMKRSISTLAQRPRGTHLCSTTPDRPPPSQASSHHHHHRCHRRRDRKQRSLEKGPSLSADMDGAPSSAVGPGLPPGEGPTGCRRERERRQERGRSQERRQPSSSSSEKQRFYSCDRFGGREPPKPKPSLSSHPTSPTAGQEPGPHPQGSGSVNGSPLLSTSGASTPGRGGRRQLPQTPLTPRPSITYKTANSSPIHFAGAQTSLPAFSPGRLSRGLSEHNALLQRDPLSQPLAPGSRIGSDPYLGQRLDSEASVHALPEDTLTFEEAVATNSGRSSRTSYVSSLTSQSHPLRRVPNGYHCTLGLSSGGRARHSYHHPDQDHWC
T5 sequence (Q02410 whole entry): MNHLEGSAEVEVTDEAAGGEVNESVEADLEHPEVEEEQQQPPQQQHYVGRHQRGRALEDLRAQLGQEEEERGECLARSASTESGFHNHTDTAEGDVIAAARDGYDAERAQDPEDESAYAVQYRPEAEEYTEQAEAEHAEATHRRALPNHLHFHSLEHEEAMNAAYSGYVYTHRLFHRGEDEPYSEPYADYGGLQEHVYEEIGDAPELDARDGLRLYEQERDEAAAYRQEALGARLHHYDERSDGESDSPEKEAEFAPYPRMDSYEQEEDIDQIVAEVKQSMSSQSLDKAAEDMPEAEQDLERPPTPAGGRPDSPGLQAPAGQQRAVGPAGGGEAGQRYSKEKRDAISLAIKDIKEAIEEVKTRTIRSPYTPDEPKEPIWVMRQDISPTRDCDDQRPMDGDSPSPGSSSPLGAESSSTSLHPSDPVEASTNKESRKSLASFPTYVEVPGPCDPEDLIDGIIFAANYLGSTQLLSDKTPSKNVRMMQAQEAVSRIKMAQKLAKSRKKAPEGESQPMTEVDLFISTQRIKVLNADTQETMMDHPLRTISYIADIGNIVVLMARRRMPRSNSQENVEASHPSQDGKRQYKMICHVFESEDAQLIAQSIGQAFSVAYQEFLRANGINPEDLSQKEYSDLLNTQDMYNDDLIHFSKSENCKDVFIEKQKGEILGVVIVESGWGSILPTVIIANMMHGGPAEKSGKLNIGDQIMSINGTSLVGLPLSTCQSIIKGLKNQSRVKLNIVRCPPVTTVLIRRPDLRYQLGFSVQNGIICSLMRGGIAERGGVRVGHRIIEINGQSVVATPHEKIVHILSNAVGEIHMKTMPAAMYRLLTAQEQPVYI
T2 sequence (P63165 whole entry, the tested form may be a part): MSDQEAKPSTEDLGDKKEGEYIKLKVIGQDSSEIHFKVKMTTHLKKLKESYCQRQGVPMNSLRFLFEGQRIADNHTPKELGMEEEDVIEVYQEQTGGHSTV
Photoreceptor-specific nuclear receptor, sequence (Q9Y5X4 whole entry, the tested form may be a part): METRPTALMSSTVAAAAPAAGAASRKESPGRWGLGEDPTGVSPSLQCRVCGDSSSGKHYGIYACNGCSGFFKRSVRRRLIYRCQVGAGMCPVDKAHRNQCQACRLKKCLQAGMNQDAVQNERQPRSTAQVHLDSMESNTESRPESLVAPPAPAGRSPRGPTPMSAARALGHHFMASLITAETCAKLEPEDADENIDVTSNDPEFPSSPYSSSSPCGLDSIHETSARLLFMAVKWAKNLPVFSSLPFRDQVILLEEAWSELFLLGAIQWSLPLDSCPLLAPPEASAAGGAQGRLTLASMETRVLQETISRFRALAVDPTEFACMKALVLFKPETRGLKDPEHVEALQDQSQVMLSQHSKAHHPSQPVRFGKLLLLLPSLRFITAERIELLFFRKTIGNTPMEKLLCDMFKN
Beta Lactamase, sequence (Q932Y6 whole entry, the tested form may be a part): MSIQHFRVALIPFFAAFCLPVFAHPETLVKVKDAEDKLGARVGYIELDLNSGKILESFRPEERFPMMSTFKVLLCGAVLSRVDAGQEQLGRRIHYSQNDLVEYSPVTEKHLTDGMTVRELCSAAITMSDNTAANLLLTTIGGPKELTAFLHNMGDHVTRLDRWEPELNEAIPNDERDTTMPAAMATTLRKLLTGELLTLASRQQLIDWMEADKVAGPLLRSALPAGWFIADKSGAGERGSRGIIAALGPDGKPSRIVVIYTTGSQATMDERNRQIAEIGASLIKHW

With `Cc1sc2ncnc(NCC(O)c3ccccc3)c2c1C` (stereo unspecified) the IC50 [1] was 20.9 µM (inactive) and the AC50 (INS1) was 5.29 µM (active).
For `Nc1nccc(-c2ccc(-n3cnc4ccccc43)cc2)n1`, the IC50 (Interleukin-8) was 10.2 µM (inactive).
With `CCOC(=O)c1cc(-c2ccc(N3CCOCC3)cc2)nn1-c1ccccc1C(=O)O` the IC50 [2] was > 66.6 µM (inactive), the IC50 [3] was 5.98 µM (active) and the IC50 [4] was 6.99 µM (active). For the same molecule, the IC50 [5] was 1.51 µM (active), the IC50 [6] was 8.42 µM (active) and the IC50 [7] was > 50 µM (inactive). The IC50 [8] was 12.3 µM (active) and the IC50 [9] was 5.98 µM (active).
With `CCOC(=O)Cc1c(Cl)cnn(Cc2cccc3ccccc23)c1=O` the IC50 [10] was 10.3 µM (inactive) and the IC50 [11] was 10.9 µM (inactive).
For `N#CC(c1cccnc1)c1c(Cl)cnn(Cc2cccc3ccccc23)c1=O` (stereo unspecified), the IC50 [10] was 0.975 µM (active) and the IC50 [11] was 4.56 µM (active).
In the case of `Cc1[nH]c(SCc2ccccc2Cl)nc(=O)c1C`, the CC50 [12] was > 100 µM (active) and the CC50 [13] was > 100 µM (active).
For `CCOC(=O)[C@]12Cc3ccccc3[C@H]1N(C1CCCCC1)C(=O)c1cc(OC)ccc12`, the IC50 (Fatty acid synthase) was 8.19 µM (active), the IC50 [14] was 2.28 µM (active) and the IC50 (Beta Lactamase) was 48 µM (inactive).
For `CCC(c1nc2ccccc2[nH]1)n1c(=O)c(-c2ccco2)nc2ccccc21` (stereo unspecified), the IC50 [15] was 3.79 µM (active).

— ChEMBL document CHEMBL1201862, “PubChem BioAssay data set” (2004)
